In ChEMBL document CHEMBL4507291 (2021):

What was measured:
[1] = molecular target: T1, Aurora kinase C (Homo sapiens) (UniProt Q9UQB9)
T1 sequence (whole entry): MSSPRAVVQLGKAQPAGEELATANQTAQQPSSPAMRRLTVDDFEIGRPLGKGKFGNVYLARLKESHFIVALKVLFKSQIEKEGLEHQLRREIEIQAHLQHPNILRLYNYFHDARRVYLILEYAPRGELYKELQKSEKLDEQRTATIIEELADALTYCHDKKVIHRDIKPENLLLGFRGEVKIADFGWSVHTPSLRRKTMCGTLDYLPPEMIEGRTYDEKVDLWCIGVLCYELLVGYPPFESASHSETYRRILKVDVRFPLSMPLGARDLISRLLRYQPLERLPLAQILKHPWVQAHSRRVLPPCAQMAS

[2] = molecular target: Calcium/calmodulin-dependent protein kinase type 1 (Homo sapiens) (UniProt Q14012)
Calcium/calmodulin-dependent protein kinase type 1 (Homo sapiens), sequence (Q14012 whole entry, looked up): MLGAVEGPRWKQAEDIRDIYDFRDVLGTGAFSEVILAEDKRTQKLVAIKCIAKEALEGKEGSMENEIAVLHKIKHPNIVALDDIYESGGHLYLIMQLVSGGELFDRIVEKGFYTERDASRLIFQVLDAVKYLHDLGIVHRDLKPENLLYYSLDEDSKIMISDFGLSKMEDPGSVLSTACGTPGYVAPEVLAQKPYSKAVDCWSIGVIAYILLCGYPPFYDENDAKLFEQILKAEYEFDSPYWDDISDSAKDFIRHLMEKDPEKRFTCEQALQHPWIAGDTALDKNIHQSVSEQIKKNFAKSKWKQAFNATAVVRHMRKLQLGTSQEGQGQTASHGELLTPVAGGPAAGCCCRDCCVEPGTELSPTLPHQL

[3] = molecular target: Macrophage colony-stimulating factor 1 receptor (Homo sapiens) (UniProt P07333)
[4] = molecular target: Serine/threonine-protein kinase 17B (Homo sapiens) (UniProt O94768)
Serine/threonine-protein kinase 17B (Homo sapiens), sequence (O94768 whole entry): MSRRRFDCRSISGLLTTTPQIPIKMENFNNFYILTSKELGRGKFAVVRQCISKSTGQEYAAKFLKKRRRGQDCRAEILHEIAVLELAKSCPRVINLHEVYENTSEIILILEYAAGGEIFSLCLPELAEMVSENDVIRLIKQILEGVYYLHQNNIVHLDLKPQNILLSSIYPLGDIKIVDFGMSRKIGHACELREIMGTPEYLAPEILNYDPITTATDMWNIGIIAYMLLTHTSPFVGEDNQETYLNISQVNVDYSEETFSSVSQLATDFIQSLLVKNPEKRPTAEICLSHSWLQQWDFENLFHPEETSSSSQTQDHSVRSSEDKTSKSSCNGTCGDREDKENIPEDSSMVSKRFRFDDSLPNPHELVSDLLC

[5] = molecular target: Ephrin type-A receptor 5 (Homo sapiens) (UniProt P54756)
[6] = molecular target: Receptor tyrosine-protein kinase erbB-3 (Homo sapiens) (UniProt P21860)
Receptor tyrosine-protein kinase erbB-3 (Homo sapiens), sequence (P21860 whole entry): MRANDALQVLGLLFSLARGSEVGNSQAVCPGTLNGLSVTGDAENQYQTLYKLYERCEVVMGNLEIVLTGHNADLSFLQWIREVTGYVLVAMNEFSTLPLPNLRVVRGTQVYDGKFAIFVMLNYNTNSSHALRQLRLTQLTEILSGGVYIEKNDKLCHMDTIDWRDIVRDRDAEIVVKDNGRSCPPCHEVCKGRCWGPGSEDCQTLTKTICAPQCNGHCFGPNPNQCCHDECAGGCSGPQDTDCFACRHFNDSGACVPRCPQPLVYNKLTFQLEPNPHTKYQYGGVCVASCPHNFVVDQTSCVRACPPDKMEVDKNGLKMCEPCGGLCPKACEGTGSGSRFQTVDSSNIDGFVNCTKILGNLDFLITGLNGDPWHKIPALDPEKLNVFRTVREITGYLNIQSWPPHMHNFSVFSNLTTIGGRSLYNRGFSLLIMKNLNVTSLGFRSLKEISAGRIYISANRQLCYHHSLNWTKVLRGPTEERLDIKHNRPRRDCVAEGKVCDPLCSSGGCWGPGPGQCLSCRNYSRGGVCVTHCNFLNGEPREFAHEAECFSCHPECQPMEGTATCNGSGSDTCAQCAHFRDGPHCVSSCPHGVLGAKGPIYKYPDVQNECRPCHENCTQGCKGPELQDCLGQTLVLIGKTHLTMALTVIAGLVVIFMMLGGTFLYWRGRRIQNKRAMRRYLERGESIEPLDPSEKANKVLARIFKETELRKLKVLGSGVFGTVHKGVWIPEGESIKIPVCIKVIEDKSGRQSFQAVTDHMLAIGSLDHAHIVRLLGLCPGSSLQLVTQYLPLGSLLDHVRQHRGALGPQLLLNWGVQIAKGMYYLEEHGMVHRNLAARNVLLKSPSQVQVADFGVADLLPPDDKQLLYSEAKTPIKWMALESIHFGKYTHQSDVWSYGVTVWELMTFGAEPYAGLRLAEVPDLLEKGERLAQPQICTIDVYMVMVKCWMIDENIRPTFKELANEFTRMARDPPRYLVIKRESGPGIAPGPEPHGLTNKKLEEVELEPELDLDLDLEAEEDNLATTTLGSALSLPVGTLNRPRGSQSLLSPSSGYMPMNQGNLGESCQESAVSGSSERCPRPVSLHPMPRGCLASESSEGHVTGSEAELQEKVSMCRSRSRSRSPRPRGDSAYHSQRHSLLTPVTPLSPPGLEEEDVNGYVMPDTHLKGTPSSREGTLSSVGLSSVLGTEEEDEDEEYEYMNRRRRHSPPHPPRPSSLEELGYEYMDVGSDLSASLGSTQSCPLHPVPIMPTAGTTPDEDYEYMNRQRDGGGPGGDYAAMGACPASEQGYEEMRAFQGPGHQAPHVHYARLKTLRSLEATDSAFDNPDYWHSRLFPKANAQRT

[7] = test system: Receptor-type tyrosine-protein kinase FLT3 (Homo sapiens), P36888 [K663Q]
[8] = molecular target: Glycogen synthase kinase-3 alpha (Homo sapiens) (UniProt P49840)
Glycogen synthase kinase-3 alpha (Homo sapiens), sequence (P49840 2-483 limits assumed): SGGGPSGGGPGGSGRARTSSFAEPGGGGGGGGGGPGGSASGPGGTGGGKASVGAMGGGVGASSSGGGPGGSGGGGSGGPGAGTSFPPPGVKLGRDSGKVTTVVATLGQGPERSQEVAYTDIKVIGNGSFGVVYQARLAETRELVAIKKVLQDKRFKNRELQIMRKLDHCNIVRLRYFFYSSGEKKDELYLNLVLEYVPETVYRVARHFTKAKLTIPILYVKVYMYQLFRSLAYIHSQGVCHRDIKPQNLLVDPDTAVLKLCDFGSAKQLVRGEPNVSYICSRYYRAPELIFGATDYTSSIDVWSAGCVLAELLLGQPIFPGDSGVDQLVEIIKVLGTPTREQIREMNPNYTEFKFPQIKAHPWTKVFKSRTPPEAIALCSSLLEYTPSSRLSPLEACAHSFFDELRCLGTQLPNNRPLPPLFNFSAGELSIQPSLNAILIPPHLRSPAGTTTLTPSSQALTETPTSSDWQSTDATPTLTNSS

[9] = molecular target: Serine/threonine-protein kinase ICK (Homo sapiens) (UniProt Q9UPZ9)
Serine/threonine-protein kinase ICK (Homo sapiens), sequence (Q9UPZ9 whole entry): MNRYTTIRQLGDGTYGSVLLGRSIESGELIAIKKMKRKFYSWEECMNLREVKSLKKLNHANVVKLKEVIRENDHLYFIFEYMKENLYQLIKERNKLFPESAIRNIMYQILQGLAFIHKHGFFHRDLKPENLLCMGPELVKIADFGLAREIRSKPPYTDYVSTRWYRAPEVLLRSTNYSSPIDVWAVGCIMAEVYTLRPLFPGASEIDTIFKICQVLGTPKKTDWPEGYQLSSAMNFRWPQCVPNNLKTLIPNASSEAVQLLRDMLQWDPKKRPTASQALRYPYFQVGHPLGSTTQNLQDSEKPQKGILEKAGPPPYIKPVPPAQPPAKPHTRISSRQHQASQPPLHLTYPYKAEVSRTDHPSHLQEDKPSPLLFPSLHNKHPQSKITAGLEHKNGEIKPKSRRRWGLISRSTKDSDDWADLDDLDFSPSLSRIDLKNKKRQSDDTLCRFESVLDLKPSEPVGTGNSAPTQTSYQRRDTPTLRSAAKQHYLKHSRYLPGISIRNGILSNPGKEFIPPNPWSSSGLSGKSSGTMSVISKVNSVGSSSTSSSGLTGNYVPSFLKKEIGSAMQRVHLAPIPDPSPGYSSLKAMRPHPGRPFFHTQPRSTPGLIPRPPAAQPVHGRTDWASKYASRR

[10] = molecular target: Mitogen-activated protein kinase kinase kinase 1 (Homo sapiens) (UniProt Q13233)
Mitogen-activated protein kinase kinase kinase 1 (Homo sapiens), sequence (Q13233 whole entry): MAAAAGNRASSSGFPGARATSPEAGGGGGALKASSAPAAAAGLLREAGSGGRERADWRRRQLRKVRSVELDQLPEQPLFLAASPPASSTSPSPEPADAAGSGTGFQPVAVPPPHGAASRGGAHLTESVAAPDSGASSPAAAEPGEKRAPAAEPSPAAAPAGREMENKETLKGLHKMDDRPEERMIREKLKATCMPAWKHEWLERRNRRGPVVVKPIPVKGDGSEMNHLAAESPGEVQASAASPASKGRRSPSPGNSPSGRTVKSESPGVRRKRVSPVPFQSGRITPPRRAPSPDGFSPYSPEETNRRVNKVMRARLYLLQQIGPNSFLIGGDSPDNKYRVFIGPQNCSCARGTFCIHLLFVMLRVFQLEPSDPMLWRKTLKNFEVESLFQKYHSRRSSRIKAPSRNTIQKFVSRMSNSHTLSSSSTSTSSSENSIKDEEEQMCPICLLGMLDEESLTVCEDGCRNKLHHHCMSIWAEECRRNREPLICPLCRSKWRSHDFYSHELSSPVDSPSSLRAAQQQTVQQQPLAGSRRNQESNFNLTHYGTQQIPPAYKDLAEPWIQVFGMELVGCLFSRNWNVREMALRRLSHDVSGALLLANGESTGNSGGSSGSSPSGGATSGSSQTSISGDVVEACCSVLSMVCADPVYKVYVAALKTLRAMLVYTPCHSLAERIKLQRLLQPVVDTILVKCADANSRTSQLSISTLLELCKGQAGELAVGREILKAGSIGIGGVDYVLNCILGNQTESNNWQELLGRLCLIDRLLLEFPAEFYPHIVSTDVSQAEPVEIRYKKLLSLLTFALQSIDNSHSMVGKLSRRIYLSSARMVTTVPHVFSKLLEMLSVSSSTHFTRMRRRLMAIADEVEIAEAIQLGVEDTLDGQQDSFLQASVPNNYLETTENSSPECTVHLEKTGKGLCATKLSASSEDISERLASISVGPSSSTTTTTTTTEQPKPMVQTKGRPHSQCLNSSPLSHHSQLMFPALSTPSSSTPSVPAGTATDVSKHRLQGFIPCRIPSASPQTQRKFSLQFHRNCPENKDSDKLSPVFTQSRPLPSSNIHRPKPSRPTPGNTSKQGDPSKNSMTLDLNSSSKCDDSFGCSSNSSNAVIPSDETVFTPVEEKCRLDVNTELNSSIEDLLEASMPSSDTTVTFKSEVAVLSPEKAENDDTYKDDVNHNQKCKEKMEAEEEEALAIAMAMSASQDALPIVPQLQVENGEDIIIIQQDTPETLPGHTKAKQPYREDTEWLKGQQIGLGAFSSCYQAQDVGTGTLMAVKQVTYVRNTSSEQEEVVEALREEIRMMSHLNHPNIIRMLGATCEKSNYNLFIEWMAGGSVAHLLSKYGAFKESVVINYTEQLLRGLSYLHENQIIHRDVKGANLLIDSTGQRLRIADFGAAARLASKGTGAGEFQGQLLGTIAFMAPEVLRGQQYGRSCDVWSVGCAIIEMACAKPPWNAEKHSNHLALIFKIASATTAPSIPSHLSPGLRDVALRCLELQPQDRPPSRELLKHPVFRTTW

[11] = molecular target: T2, Mitogen-activated protein kinase 12 (Homo sapiens) (UniProt P53778)
T2 sequence (whole entry): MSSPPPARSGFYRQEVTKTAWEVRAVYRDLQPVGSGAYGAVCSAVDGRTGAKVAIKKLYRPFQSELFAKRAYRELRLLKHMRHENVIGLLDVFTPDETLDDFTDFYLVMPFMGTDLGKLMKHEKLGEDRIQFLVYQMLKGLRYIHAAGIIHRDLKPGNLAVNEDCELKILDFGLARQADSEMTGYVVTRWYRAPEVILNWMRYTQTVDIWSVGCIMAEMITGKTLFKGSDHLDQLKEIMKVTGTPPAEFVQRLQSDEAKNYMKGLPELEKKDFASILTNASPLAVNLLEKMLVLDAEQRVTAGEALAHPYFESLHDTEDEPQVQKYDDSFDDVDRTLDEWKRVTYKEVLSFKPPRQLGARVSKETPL

[12] = molecular target: cAMP-dependent protein kinase catalytic subunit beta (Homo sapiens) (UniProt P22694)
[13] = molecular target: Serine/threonine-protein kinase PLK4 (Homo sapiens) (UniProt O00444)
[14] = molecular target: T3, Serine/threonine-protein kinase D3 (Homo sapiens) (UniProt O94806)
T3 sequence (whole entry): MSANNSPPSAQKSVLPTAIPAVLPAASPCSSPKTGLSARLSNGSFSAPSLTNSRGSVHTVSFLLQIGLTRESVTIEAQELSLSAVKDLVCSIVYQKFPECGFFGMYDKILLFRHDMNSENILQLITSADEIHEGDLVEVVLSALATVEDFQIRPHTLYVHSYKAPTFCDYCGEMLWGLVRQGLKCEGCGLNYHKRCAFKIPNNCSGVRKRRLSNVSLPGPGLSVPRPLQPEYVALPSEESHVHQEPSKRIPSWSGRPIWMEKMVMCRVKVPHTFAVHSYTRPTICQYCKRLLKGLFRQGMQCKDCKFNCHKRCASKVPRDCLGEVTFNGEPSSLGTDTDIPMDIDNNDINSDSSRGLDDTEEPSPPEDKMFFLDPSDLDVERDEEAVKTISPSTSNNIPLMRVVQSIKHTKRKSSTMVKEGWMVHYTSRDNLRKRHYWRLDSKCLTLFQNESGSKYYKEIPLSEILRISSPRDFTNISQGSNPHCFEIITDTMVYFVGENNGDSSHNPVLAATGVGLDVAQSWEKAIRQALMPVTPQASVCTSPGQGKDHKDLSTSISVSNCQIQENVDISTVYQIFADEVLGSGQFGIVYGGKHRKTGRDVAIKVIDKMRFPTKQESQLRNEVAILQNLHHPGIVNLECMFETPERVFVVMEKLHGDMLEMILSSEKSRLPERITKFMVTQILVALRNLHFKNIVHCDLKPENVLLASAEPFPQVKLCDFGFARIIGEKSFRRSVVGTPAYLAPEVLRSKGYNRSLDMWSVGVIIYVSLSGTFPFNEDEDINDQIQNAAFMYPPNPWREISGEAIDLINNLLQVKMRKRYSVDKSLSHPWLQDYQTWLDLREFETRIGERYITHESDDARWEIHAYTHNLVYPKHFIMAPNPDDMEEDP

[15] = molecular target: Transient receptor potential cation channel subfamily M member 6 (Homo sapiens) (UniProt Q9BX84)
[16] = molecular target: Serine/threonine-protein kinase ULK1 (Homo sapiens) (UniProt O75385)
[17] = Compound concentration 1000.0 nM
[18] = Compound concentration 100.0 nM

Measured: residual activity

C[C@@H]1CN(c2cc(-c3nn(C)c4ccc(OC5(C)CC5)cc34)ncn2)C[C@H](C)O1 [MLi-2-NC]
inactive: [1]; [17] 100% | [2]; [17] 100% | [3]; [17] 100% | [4]; [17] 100% | [5]; [17] 100% | [6]; [17] 57% | [7]; [17] 100% | [8]; [17] 86% | [9]; [17] 78% | [10]; [17] 92% | [11]; [17] 100% | [12]; [17] 100% | [13]; [17] 65% | [14]; [17] 64% | [15]; [17] 85% | [16]; [17] 76%

C[C@@H]1CN(c2cc(-c3n[nH]c4ccc(OC5(C)CC5)cc34)ncn2)C[C@H](C)O1 [MLi-2]
inactive: [1]; [18] 100% | [2]; [18] 100% | [3]; [18] 91% | [4]; [18] 96% | [5]; [18] 95% | [6]; [18] 100% | [7]; [18] 100% | [8]; [18] 100% | [9]; [18] 62% | [10]; [18] 63% | [11]; [18] 96% | [12]; [18] 91% | [13]; [18] 71% | [14]; [18] 82% | [15]; [18] 64% | [16]; [18] 80%
